From patent US11530196B2, “Pyrimidine compound acting on EGFR and ERBB2” (CHINA RESOURCES PHARMACEUTICAL HOLDINGS COMPANY LIMITED, priority 2019, dated 2022)
Like-named read-outs stand apart in the source and are kept apart here.

Legend:
[1] = target: HER2 exon 20 insertion (V777_G778ins > CG) enzyme (Homo sapiens, UniProt P04626, INS777CG); assay: Kinase assay (HTRF KinEASE TK), HER2 exon 20 insertion; assay type: biochemical
Source text: To detect the inhibitory effect of compounds on EGFR WT, EGFR (D770_N771insNPG), ERBB2 (V777_G778ins>CG), EGFR T790M/L858R enzyme activities
EGFR WT (Invitrogen, Cat. No. PR7295B), EGFR [L858R] (Invitrogen, Cat. No. PR7447A), EGFR [d746-750] (Invitrogen, Cat. No. PV6179), ATP (Sigma, Cat. No. A7699-1G), DMSO (Sigma, Cat. No. D2650), DTT (Sigma, Cat. No. 43815), 384-well plate, compound dilution plate (Greiner, Cat. No. 781280), 384-well plate, test plate (Perkin Elmer, Cat. No. 6007299), HTRF KinEASE TK Kit (Cisbio, Cat. No. 62TK0PEB), magnesium chloride (Sigma, Cat. No. M1028), Orthovanadate (Sigma, Cat. No. 56508), BSA (Sigma, Cat. No. A7030), HEPES (Life technology, Cat. No. 11344-041).
The final test concentrations of the test compounds ranged from 10 μM to 0.17 nM in 3-fold gradient dilutions at 11 concentrations.
The preparation of the buffer, 50 mM HEPES (pH 7.5), 0.01% BSA, 5 mM MgCl2, and 0.1 mM Orthovanadate were contained in the buffer. After the preparation of the buffer, the enzyme and substrate were mixed with pre-diluted prepared compounds of different concentrations, and the mixture was placed at room temperature for 15 minutes. […] After the reaction was completed, the antibody was added to the assay, incubated at room temperature for 60 minutes and then detected by Envision (plate reading instrument), and data were collected. […]

[2] = test system: LU0387 EGFR-H773_V774insNPH cells; assay: Anti-proliferation activity test of LU-0387 cells; assay type: cell-based; settings: Homo sapiens, 96 h, CTG, 4 days, read-out: Cell IC50 (anti-proliferation)
Description: (1) Anti-Proliferation Activity Test of LU-0387 (EGFR Exon 20 NPH Insertion Mutation) Cells
Fetal bovine serum FBS, CellTiter Glo® luminescent cell activity assay, 96-well clear flat-bottomed black-walled plate
A cell counter was used for cell counting, and cell viability was detected to ensure that the viability of each cell line was above 90%. Cell suspension was added to a 96-well plate to bring the cell density to the specified concentration and incubated overnight at 37° C., 5% CO2 and 95% humidity. The culture medium was added to the T0 plate, the CTG reagent was melted and the cell plate was equilibrated at room temperature. CTG solution was added to each well. The cell plate was vibrated to lyse the cells and the cold light values were read. The compound to be test and the control drug were diluted in a gradient to obtain a 10-fold solution. 10 μL of drug solution was added to each well of a 96-well plate that had been inoculated with cells. The incubation was continued at 37° C., 5% CO2, 95% humidity for 4 days, and CTG analysis was performed and cold light values were read separately. The data were analyzed using GraphPad Prism 5.0 software and IC50 values were calculated.
The IC50 data of the compounds of the present disclosure against EGFR exon 20 insertion mutation NPH in LU-0387 cells are shown in Table 4.

[3] = test system: H1975 (L858R/T790M) cells; assay: Anti-proliferation activity test against H1975 cells; assay type: cell-based; settings: Homo sapiens, NCI-H1975, Cell-Titer Glo, 72 hours
Description: (§1) (2) Anti-Proliferation Activity Test of the Compound Against H1975 Cells and IC50 Test of Anti-Proliferation Activity Against A431 Cells
(§2) RPMI1640 medium, FBS fetal bovine serum, trypsin-EDTA, were all purchased from Giboco. DPBS was purchased from Corning, penicillin/streptomycin solution was purchased from Hyclone, and Cell-Titer Glo reagent was purchased from Promega (1kit, Cat. No. G7571). Plate reading instrument: Envision (PerkinElmer).
(§3) 384-well plates in columns 1, 2, and 24 were added with 45 μL of medium, and the cell suspension was dispensed with Multi-drop at 45 μL per well (1000 cells) and incubated overnight in an incubator. The compound was added to the source plate according to the Echo dispensing requirements, the compound in the source plate was added to the inter plate and diluted to an intermediate concentration, then the compound in the source plate and the inter plate was added to the cell plate, and the cells were continued to be incubated in a incubator for 72 hours. After 72 hours, Cell-Titer Glo reagent and cells were removed and equilibrated at room temperature for 30 min. 25 μL of Cell-Titer Glo reagent was dispensed into 384-well plates with Multi-drop, the cell plate was vibrated at medium speed for 3 min, centrifuged at 1000 rpm for 2 min, and stood for 10 min. The plate was read by Envision (Luminescence). […]

[4] = Pharmacokinetic study, single intravenous and oral administration in rats; assay type: in vivo; settings: rat, plasma; for AUC(0-t): read-out: Exposure of AUC0-last
Description: The purpose of this experiment was to investigate the pharmacokinetics (PK) of the compounds in different species after single intravenous and single oral administration of the test compounds.
After intravenous or oral administration, blood samples were collected from the animals, and the actual time of blood collection was recorded. After the blood samples were collected, the samples were immediately transferred to the labelled centrifuge tube containing K2-EDTA, and then centrifuged to obtain plasma. Plasma was transferred to pre-cooled centrifuge tubes, quick-frozen in dry ice and stored in an ultra-low temperature refrigerator at −70±10° C. until LC-MS/MS analysis was performed.
The plasma drug concentration data of the compounds were processed using pharmacokinetic software with a non-compartmental model. The peak concentration (Cmax) and time to peak (Tmax), as well as the quantifiable end time were obtained directly from the plasma concentration-time curve. The following pharmacokinetic parameters were calculated using the log-linear trapezoidal method: half-life (T1/2), apparent volume of distribution (Vdss), and clearance (Cl), area under the time-plasma concentration curve from point 0 to the end time point (AUC0-last), and initial concentration (C0).

[5] = test system: A431 (EGFR wild type) cells; assay: Anti-proliferation activity test against A431 cells; assay type: cell-based; settings: Homo sapiens, A-431; A431, Cell-Titer Glo, 72 hours
Description: as §1, §2, §3

HER2 exon 20 insertion (V777_G778ins > CG) enzyme, sequence (P04626 with tags, fused parts or gaps INS777CG limits assumed): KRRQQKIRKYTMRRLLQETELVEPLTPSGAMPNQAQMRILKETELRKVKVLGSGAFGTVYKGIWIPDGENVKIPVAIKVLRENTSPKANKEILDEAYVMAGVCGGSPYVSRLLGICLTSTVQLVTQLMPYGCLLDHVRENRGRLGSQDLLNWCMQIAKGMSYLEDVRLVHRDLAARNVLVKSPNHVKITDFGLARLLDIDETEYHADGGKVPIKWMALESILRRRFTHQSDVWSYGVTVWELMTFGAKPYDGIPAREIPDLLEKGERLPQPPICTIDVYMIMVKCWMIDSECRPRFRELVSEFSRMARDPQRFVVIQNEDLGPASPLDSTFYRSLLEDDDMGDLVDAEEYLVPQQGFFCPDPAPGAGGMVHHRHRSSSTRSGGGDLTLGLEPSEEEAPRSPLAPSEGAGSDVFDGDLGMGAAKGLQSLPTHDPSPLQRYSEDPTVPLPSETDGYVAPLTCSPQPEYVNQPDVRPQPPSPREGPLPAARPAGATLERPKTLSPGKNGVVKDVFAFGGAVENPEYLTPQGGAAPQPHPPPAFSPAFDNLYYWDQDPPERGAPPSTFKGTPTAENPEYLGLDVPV

C=CC(=O)Nc1cc(Nc2ncc(C(=O)OC(C)C)c(-c3cn(OC)c4ccccc34)n2)c(OC)cc1N(C)CCN(C)C.CS(=O)(=O)O [Compound 1]
IC50 [1]: 0.00186 µM | IC50 [2]: 0.0256 µM | IC50 [3]: 0.0153 µM | clearance ([4]; intravenous injection 2 mg/kg): 90.5 mL/min/kg | half-life ([4]; intravenous injection 2 mg/kg): 2.62 h | AUC ([4]; intravenous injection 2 mg/kg, read-out: Exposure of AUC): 0.548 µM·h | Vd ([4]; intravenous injection 2 mg/kg, read-out: Vdss): 18 L/kg | bioavailability ([4]; oral 10 mg/kg): 21.6% | AUC(0-t) ([4]; oral 10 mg/kg): 0.593 µM·h | bioavailability ([4]; oral 20 mg/kg): 57.1% | AUC(0-t) ([4]; oral 20 mg/kg): 3.13 µM·h | bioavailability ([4]; oral 50 mg/kg): 68.6% | AUC(0-t) ([4]; oral 50 mg/kg): 9.39 µM·h | bioavailability ([4]; oral 200 mg/kg): 34.5% | AUC(0-t) ([4]; oral 200 mg/kg): 18.9 µM·h | IC50 [5]: 0.335 µM
